Reference: patent US7879876B2, “Sulfonamide derivatives and use thereof for the modulation of metalloproteinases” (Merck Serono SA, priority 2005, dated 2011)

Assays:
Format in all cases: biochemical
[1] = target: 92 kDa gelatinase (MMP-9) (Homo sapiens, UniProt P14780); assay: MMP-9 enzyme inhibition assay (coumarin-labeled peptide substrate); details: for inhibition at 5 µM: read-out: percentage inhibition MMP9; for IC50: read-out: IC50 MMP9
Outline: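 Recombinant human MMP-9 (APMA-activated if needed) was assayed in 100 mM Tris-HCl pH 7.6, 100 mM NaCl, 10 mM CaCl2, 0.05% Brij 35, with McaPLGLDpaAR substrate at 37° C. for 2 h. Fluorescence was read at ex 320/em 405 nm over ten 3-fold compound doses (100 μM–5.1 nM) in duplicate. IC50 came from a four-parameter fit.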

metalloelastase (MMP-12) = metalloelastase (MMP-12) (Homo sapiens, UniProt P39900); assay: MMP-12 enzyme inhibition assay (coumarin-labelled peptide substrate); details: read-out: IC50 MMP12
Outline: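 Recombinant human MMP-12 assayed per the MMP-9 protocol: Tris-HCl pH 7.6 buffer with NaCl, CaCl2, Brij 35; McaPLGLDpaAR substrate, compounds 100 μM–5.1 nM in duplicate, 2 h at 37° C. Fluorescence read at 405 nm (320 nm excitation) without stopping; IC50 from four-parameter fit.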

human ADAM17 (TACE) = human ADAM17 (TACE) (Homo sapiens, UniProt P78536); assay: TACE enzyme inhibition assay
Description: Compounds of the invention were tested to assess their activities as inhibitors of MMP-1, MMP-2, MMP-9, MMP-14, MMP-12 and TACE. MMP-9 Assay Protocol
Compounds of the invention can be tested for inhibitory activity against human ADAM17 in an assay using human Mca-(endo-1a-Dap(Dnp)-TNF-alpha(−5 to +6)amide as substrate (FEBS Letters, 2000, 275-279).
Stock solutions are prepared as followed: • Assay Buffer: 20 mM Hepes pH 7.5 (Fluka) containing 0.05% Brij 35 (Fluka) • Substrate: 6.1 mM human Mca-(endo-1a-Dap(Dnp)-TNF-alpha(−5 to +6)amide (Bachem) stock solution in 100% DMSO (stored at −20° C.); diluted to 5 μM in assay buffer. • Enzyme: Recombinant human ADAM17, appropriately diluted in assay buffer (1.5 μg/ml).
Test Compounds are prepared initially as 10 mM compound solution in 100% DMSO, diluted to 1 mM in 100% DMSO, then serially diluted 3-fold in 100% DMSO across a 96-well microtitre plate. Assay concentration range is typically between 100 μM to 0.01 nM. The assay is performed in a total volume of 100 μL per well in 96-well microtitre plates. Appropriate concentrations of test compounds dissolved in 10 μL of DMSO are added to the wells, followed by substrate solution (50 μL, 5 μM prepared by dilution of DMSO stock in assay buffer) and enzyme solution (40 μL). For each as say ten concentrations of test compound are examined in […]. Control wells lack either enzyme or test compound. The reactions are incubated at room temperature for 1.5 hours. The fluorescence at 405 nm is measured immediately with a fluorometer using 355 nm excitation, without stopping the reaction.
The effect of the test compound is determined from the dose response curve generated by the 10 duplicate concentrations of inhibitor. The IC50 (the concentration of compound required to give a 50% decrease in enzyme activity) is obtained by fitting data to the equation, Y=a+((b−a)/(1+(c/X)^d)). (Y=inhibition achieved for a particular dose; X=the dose in nM; a=minimum y or zero % inhibition; b=maximum y or 100% inhibition; c=is the IC50; d=is the slope). The result is rounded to one significant figure.

Sequence of metalloelastase (MMP-12) (P39900 106-470): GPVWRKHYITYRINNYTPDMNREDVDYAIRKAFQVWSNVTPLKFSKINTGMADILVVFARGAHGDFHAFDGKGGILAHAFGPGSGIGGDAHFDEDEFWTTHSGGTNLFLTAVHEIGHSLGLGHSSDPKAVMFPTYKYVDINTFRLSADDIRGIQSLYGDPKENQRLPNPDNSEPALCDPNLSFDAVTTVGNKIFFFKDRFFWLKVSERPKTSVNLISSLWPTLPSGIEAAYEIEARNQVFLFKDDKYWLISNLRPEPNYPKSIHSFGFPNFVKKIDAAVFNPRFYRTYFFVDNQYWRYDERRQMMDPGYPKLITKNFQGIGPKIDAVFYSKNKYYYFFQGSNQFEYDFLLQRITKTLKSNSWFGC
Sequence of 92 kDa gelatinase (MMP-9) (P14780 107-707 limits assumed): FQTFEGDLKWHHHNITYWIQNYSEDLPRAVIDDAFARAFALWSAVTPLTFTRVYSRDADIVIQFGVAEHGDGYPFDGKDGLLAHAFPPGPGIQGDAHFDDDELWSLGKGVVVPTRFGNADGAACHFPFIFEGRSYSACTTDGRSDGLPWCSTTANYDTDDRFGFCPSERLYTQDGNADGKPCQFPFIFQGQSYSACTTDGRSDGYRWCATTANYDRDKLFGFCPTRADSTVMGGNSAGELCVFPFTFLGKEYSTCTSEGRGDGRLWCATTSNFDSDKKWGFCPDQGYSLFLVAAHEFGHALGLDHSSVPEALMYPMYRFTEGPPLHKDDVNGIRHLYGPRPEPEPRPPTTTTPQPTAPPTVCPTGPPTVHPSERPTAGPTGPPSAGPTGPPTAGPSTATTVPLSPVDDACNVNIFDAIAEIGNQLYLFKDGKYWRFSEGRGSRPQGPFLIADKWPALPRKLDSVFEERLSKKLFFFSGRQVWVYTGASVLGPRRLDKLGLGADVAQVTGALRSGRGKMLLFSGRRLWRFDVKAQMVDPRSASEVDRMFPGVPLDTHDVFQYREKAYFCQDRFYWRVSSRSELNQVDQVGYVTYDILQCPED
Sequence of human ADAM17 (TACE) (P78536 215-824): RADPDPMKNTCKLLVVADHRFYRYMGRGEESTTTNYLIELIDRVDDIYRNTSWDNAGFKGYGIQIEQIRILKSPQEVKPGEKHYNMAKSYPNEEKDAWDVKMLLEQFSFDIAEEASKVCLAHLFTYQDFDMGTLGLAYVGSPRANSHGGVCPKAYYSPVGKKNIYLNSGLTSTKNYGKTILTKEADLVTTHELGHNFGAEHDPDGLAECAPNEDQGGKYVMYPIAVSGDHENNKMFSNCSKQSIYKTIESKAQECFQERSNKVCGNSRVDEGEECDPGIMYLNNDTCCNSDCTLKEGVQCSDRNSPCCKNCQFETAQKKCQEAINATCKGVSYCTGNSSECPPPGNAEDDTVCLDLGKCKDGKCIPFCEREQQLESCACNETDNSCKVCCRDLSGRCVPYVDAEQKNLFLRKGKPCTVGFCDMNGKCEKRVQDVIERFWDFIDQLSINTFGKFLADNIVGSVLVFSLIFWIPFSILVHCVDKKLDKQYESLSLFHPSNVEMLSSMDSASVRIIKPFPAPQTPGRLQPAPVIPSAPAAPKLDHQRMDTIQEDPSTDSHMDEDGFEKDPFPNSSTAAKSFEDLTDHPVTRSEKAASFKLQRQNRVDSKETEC

SMILES | inhibition at 5 µM [1] | IC50 (metalloelastase (MMP-12)) | IC50 (human ADAM17 (TACE)) | IC50 [1]
O=CN(O)C(CS(=O)(=O)N1CCc2ccc(Br)cc2C1)C1CCCC1 (stereo not drawn) [Example 64, N-{2-[(7-bromo-3,4-dihydroisoquinolin-2(1H)-yl)sulfonyl]-1-cyclopentylethyl}-N-hydroxyformamide] | 32% | 7.9 nM | 91 nM | 
O=CN(O)C(CS(=O)(=O)N1Cc2ccc(F)cc2C1)C1CCCC1 (stereo not drawn) [Example 80, N-{1-cyclopentyl-2-[(5-fluoro-1,3-dihydro-2H-isoindol-2-yl)sulfonyl]ethyl}-N-hydroxyformamide] | 0% | 45 nM | > 5000 nM | 
COc1cc2c(cc1OC)CN(S(=O)(=O)CC(CCc1ccccc1)N(O)C=O)CC2 (stereo not drawn) [Example 12, N-(1-{[(6,7-dimethoxy-3,4-dihydroisoquinolin-2(1H)-yl)sulfonyl]methyl}-3-phenylpropyl)-N-hydroxyformamide] |  | 92 nM | 1220 nM | > 5000 nM
CC(C)c1ccc2c(c1)CCN(S(=O)(=O)CC(C1CCCC1)N(O)C=O)C2 (stereo not drawn) [Example 81, N-{1-cyclopentyl-2-[(6-isopropyl-3,4-dihydroisoquinolin-2(1H)-yl)sulfonyl]ethyl}-N-hydroxyformamide] | 44% | 3.1 nM | > 5000 nM | 
CCCCCC(C)(C)C(CS(=O)(=O)N1CCc2cc(C(F)(F)F)ccc2C1)N(O)C=O (stereo not drawn) [Example 63, N-[2,2-dimethyl-1-({[6-(trifluoromethyl)-3,4-dihydro-isoquinolin-2(1H)-yl]sulfonyl}methyl)heptyl]-N-hydroxyformamide] | 7% | 88 nM | > 5000 nM | 
O=CN(O)C(CS(=O)(=O)N1CCc2ccc(C(F)(F)F)cc2C1)C1CC1 (stereo not drawn) [Example 83, N-(1-cyclopropyl-2-{[7-(trifluoromethyl)-3,4-dihydroisoquinolin-2(1H)-yl]sulfonyl}ethyl)-N-hydroxyformamide] | 4% | 52 nM | > 5000 nM | 
O=CN(O)C(CO)CS(=O)(=O)N1CCc2cc(Cl)c(Cl)cc2C1 (stereo not drawn) [Example 49, N-[2-[(6,7-dichloro-3,4-dihydroisoquinolin-2(1H)-yl)-sulfonyl]-1-(hydroxymethyl)ethyl]-N-hydroxyformamide] | 43% | 5.5 nM | 239 nM | 
O=CN(O)C(CCc1ccccc1)CS(=O)(=O)N1Cc2ccccc2C1 (stereo not drawn) [Example 6, N-{1-[(1,3-dihydro-2H-isoindol-2-ylsulfonyl)methyl]-3-phenylpropyl}-N-hydroxyformamide] |  | 9 nM | 280 nM | 877 nM
O=CN(O)C(CCO)CS(=O)(=O)N1CCc2ccc(Cl)cc2C1 (stereo not drawn) [Example 48, N-(1-{[(7-chloro-3,4-dihydroisoquinolin-2(1H)-yl)sulfonyl]-methyl}-3-hydroxypropyl)-N-hydroxyformamide] | 8% | 46 nM | 269 nM | 
O=CN(O)C(CS(=O)(=O)N1CCc2ccccc2C1)C1CC1 (stereo not drawn) [Example 4, N-[1-cyclopropyl-2-(3,4-dihydroisoquinolin-2(1H)-ylsulfonyl)ethyl]-N-hydroxyformamide] |  | 65 nM | 114 nM | > 5000 nM
COc1cc2c(cc1OC)CN(S(=O)(=O)CC([C@H](O)CO)N(O)C=O)CC2 (stereo partly drawn) [Example 24, N-((2S)-1-{[(6,7-dimethoxy-3,4-dihydroisoquinolin-2(1H)-yl)sulfonyl]methyl}-2,3-dihydroxypropyl)-N-hydroxyformamide] |  | 300 nM | > 5000 nM | > 5000 nM
O=CN(O)C(CCc1cccnc1)CS(=O)(=O)N1CCc2ccc(Cl)cc2C1 (stereo not drawn) [Example 86, N-(1-{[(7-chloro-3,4-dihydroisoquinolin-2(1H)-yl)sulfonyl]methyl}-3-pyridin-3-ylpropyl)-N-hydroxyformamide] | 52% | 9.8 nM | 59 nM | 
CC1(C)OC[C@H](C(CS(=O)(=O)N2CCc3ccc(Cl)cc3C2)N(O)C=O)O1 (stereo partly drawn) [Example 19, N-{2-[(7-chloro-3,4-dihydroisoquinolin-2(1H)-yl)sulfonyl]-1-[(4S)-2,2-dimethyl-1,3-dioxolan-4-yl]ethyl}-N-hydroxyformamide] |  | 6 nM | 23 nM | > 5000 nM
CCCCCC(CS(=O)(=O)N1CCc2ccccc2C1)N(O)C=O (stereo not drawn) [Example 3, N-{1-[(3,4-dihydroisoquinolin-2(1H)-ylsulfonyl)methyl]hexyl}-N-hydroxyformamide] |  | 14 nM | 28 nM | > 5000 nM
CC(C)(C)CC(CS(=O)(=O)N1CCc2ccc(Cl)cc2C1)N(O)C=O (stereo not drawn) [Example 41, N-(1-{[(7-chloro-3,4-dihydroisoquinolin-2(1H)-yl)sulfonyl]-methyl}-3,3-dimethylbutyl)-N-hydroxyformamide] | 14% | 11 nM | 189 nM | 
O=CN(O)[C@H](CS(=O)(=O)N1CCc2ccc(Cl)cc2C1)[C@H]1CCCO1 [Example 23, N-{(1S)-2-[(7-chloro-3,4-dihydroisoquinolin-2(1H)-yl)sulfonyl]-1-[(2R)-tetrahydrofuran-2-yl]ethyl}-N-hydroxyformamide] |  | 28 nM | 13 nM | > 5000 nM
CC1(C)OC[C@H](C(CS(=O)(=O)N2Cc3ccccc3C2)N(O)C=O)O1 (stereo partly drawn) [Example 16, N-{2-(1,3-dihydro-2H-isoindol-2-ylsulfonyl)-1-[(4S)-2,2-dimethyl-1,3-dioxolan-4-yl]ethyl}-N-hydroxyformamide] |  | 12 nM | 311 nM | > 5000 nM
O=CN(O)C(CS(=O)(=O)N1CCc2cc(C(F)(F)F)ccc2C1)C1CC1 (stereo not drawn) [Example 74, N-(1-cyclopropyl-2-{[6-(trifluoromethyl)-3,4-dihydro-isoquinolin-2(1H)-yl]sulfonyl}ethyl)-N-hydroxyformamide] | 32% | 5.2 nM | > 5000 nM | 
CC(C)(C)OC(=O)N1CCC[C@@H]1[C@@H](CS(=O)(=O)N1CCc2cc(Cl)c(Cl)cc2C1)N(O)C=O (racemic) [Example 44, tert-butyl (2RS)-2-{(1SR)-2-[(6,7-dichloro-3,4-dihydro-isoquinolin-2(1H)-yl)sulfonyl]-1-[formyl(hydroxy)amino]ethyl}pyrrolidine-1-carboxylate] | 21% | 7 nM | 371 nM | 
O=CN(O)C(COCc1ccccc1)CS(=O)(=O)N1CCc2ccc(C(F)(F)F)cc2C1 (stereo not drawn) [Example 59, N-[2-(benzyloxy)-1-({[7-(trifluoromethyl)-3,4-dihydro-isoquinolin-2(1H)-yl]sulfonyl}methyl)ethyl]-N-hydroxyformamide] | 32% | 7.5 nM | > 5000 nM | 
CCC(CC)C(CS(=O)(=O)N1CCc2cc(C(C)C)ccc2C1)N(O)C=O (stereo not drawn) [Example 35, N-(2-ethyl-1-{[(6-isopropyl-3,4-dihydroisoquinolin-2(1H)-yl)sulfonyl]methyl}butyl)-N-hydroxyformamide] | 43% | 4.2 nM | > 5000 nM | 
COc1cc2c(cc1OC)CN(S(=O)(=O)CC([C@H]1COC(C)(C)O1)N(O)C=O)CC2 (stereo partly drawn) [Example 14, N-{2-[(6,7-dimethoxy-3,4-dihydroisoquinolin-2(1H)-yl)sulfonyl]-1-[(4S)-2,2-dimethyl-1,3-dioxolan-4-yl]ethyl}-N-hydroxyformamide] |  | 41 nM | 620 nM | > 5000 nM
O=CN(O)C(CS(=O)(=O)N1CCc2ccc(Cl)cc2C1)C1CCCC1 (stereo not drawn) [Example 21, N-{2-[(7-chloro-3,4-dihydroisoquinolin-2(1H)-yl)sulfonyl]-1-cyclopentylethyl}-N-hydroxyformamide] |  | 19 nM | 56 nM | > 5000 nM
